# Test results from patent publication US20240156901A1, “GAL3BP POLYPEPTIDE COMPOSITIONS AND METHODS FOR TREATMENT OF CANCER AND DETERMINING TREATMENT RESPONSIVENESS” (UNIVERSITY OF PITTSBURGH-OF THE COMMONWEALTH SYSTEM OF …, priority 2021, published 2024).
# Experiments:
# Gal3-CHI3L1 interaction = Gal3-CHI3L1 interaction (Homo sapiens, UniProt P17931); settings: TS603-V5-CHI3L1 cells; 10 μM for 24 hours
# Procedure: (§1) TS603 cells overexpressing CHI3L1 with V5 tag (TS603 CHI3L1_V5_OE) or THP-1 cells treated with the peptides were collected and protein-protein interaction was crosslinked with 2 mM Dithiobis (succinimidyl propionate, DSP). Membrane proteins were extracted with the Membrane Protein Extraction Kit (ThermoFisher, Cat #89842) and ˜500 μg of protein was used for Co-IP assay by the Co-Immunoprecipitation Kit (ThermoFisher, Cat #26149). For mass spectrometry, 10 μg of each of the TS603 CHI3L1_V5_OE Co-IP samples were separated in a 12% SDS-PAGE gel and analyzed by MS at the University of Pittsburgh Biomedical MS Center.
# (§2) To confirm Co-IP experiments in TS603 cells by immunoblotting, the magnetic beads of protein G (Bio-Rad, Cat #161-4023) were used following the manufacturer's protocol. […] For in vivo THP-1 cell or in vitro recombinant protein Co-IP experiments, additional following antibodies were used: Mouse anti-CHI3L1 (Santa Cruz Biotechnology, Cat #SC-393590), Rat anti-Galectin-3 (Santa Cruz Biotechnology, Cat #SC-23938), anti-Galectin-3BP (Santa Cruz Biotechnology, Cat #SC-374541), Rabbit anti-CHI3L1 (Cell Signaling Technology, Cat #47066), and Rat IgG (BioXCell, Cat #BE0090).
# Gal3-Gal3BP interaction = Gal3-Gal3BP interaction (Homo sapiens, UniProt P17931); settings: TS603-V5-CHI3L1 cells; 10 μM for 24 hours
# Procedure: as §1, §2
# CHI3L1 secretion = test: ELISA of secreted CHI3L1 in conditioned medium of GBM neurosphere lines; assay type: cell-based, human; settings: two GBM neurosphere lines
# Procedure: Secreted CHI3L1 protein in the cell culture supernatant was measured by using the Quantikine Human CHI3L1 Immunoassay (R&D Systems, Cat #DC3L10). CHI3L1 content in the conditioned media was quantified per million cells and no CHI3L1 was detected in DMEM or NSC medium supplemented with EGF and bFGF.
# GL261-CHI3L1 glioma = test: Flow cytometry of immune cell populations in GL261-CHI3L1 glioma after peptide treatment; assay type: in vivo, mouse; settings: tumors of C57BL/6 mice bearing GL261-CHI3L1
# Procedure: Mice with neurological deficits or moribund appearance were sacrificed. Tumors were separated and homogenized for 15 min at 37° C. in Collagenase IV Cocktail (3.2 mg/mL collagenase type IV, 2 mg/mL soybean trypsin inhibitor, and 1.0 mg/mL deoxyribonuclease I; Worthington Biochemical). Red blood cells were lysed using ACK lysing buffer (Gibco). Cell suspensions were filtered through 70-μm strainers, centrifuged, and resuspended in cold FACS buffer (DPBS with 1% BSA) for further analysis.
# About 3×10^6 cells were used for each staining panel. Cells were incubated with 1.0 μg of TruStain fcX (BioLegend) for 10 min on ice to block Fc receptors, followed by staining with the combination of indicated antibodies. After staining, cells were washed with FACS buffer three times and incubated with Fixation Buffer (BioLegend) at RT for 20 min. Cells were washed with FACS buffer, resuspended in Cyto-Last Buffer (BioLegend), and analyzed by either a BD LSRFortessa or BD FACSAria II SORP. For CyTOF, samples were prepared as described above for flow cytometry. Three pairs of samples (scrambled shRNA vs Chi3l1 KD) with similar tumor sizes were chosen and the staining procedure was followed as previously described (Mitsialis V, et al., 2020). The samples were analyzed on a Helios2 CyTOF system (Fluidigm) at the Longwood Medical Area CyTOF Core. Additional information about flow cytometry antibodies is provided in the Supplementary Material and Methods section.
# [1] = tested on: GL261-CHI3L1 orthotopic tumors; test: Peptide treatment of GL261-CHI3L1 orthotopic tumors (MRI, survival); settings: C57BL/6 mice bearing GL261-CHI3L1 orthotopic tumors; 20 μM peptide into brain tumor via guide screw
# Procedure: Male and female ICR SCID and C57BL/6 mice (4-6 weeks of age) were purchased from Taconic Biosciences and The Jackson Laboratory, respectively. The intracranial xenograft tumor models were established as previously described (Hu B et al., 2016). Cells in 5 μL DPBS were injected at the following numbers: TS543 vector control or CHI3L1 overexpression (OE), 1×10^4 cells; QPP7 scrambled control or CHI3L1 knockdown (KD), 1×10^5 cells; and GL261 vector control or CHI3L1 OE, 1×10^5 cells. […] For mice treated with peptides, 5 uL of 20 uM SCP or GMP was delivered into the mouse brain every 4 days with a total of seven times.
# MRI and bioluminescent imaging of mice were performed at Rangos Research Center Animal Imaging Core. The tumor size of mice detected by MRI was analyzed with ITK-SNAP.
# For intracranial xenograft tumor models treated with peptides, mice were implanted with a guide screw prior to intracranial injection. To install the screw, mice were anesthetized by intraperitoneal (IP) injection with ketamine/xylazine solution (1.75 mL of 100 mg/mL ketamine and 0.25 mL of 100 mg/mL xylazine in 8 mL sterile water) at a dosage of 100 μL/20 g body weight. The screw was covered by sealing the skin, and mice were allowed to recover for one week before intracranial implantation. GL261 cells overexpressing CHI3L1 (1×10^5) were injected in 5 μL of DPBS containing 20 μM of either scrambled control peptide (SCP) or Gal3BP mimetic peptide (GMP). SCP (20 μM) or GMP (20 μM) was subsequently given once every 3 days with a total of seven times by intracranial injection via the guide screw.
# All mice received general inhalation anesthesia with Isoflurane for in vivo brain imaging. […] Depth of anesthesia was monitored by toe reflex (extension of limbs, spine positioning) and respiration rate. […] Respiration was monitored using a pneumatic sensor placed between the animal bed and the mouse's abdomen, rectal temperature was measured with a fiberoptic sensor, and core temperature was maintained at 36.8±0.2° C. with a feedback-controlled warm air source (SA Instruments). […]
# [2] = tested on: bone-marrow derived macrophages (BMDMs); test: Scratch-wound healing assay, BMDM migration; assay type: cell-based, mouse; settings: rCHI3L1 0.6 μg/mL; 6 hours
# Procedure: (§3) BMDMs were isolated from male and female C57BL/6 mice as previously described (Ying W et al., 2013). Briefly, femur bones were isolated from mice, and IMDM (ATCC) supplemented with 10% FBS and P/S was used to flush the bone marrow into a petri dish. After 4-6-hour incubation, the floating cells were collected and resuspended in the medium with 20 ng/mL M-CSF (PrproTech). On day 6, the fully differentiated cells were designated as an M0 state. To induce BMDM polarization toward an M1 state, 100 ng/mL LPS (Invitrogen) and 50 ng/mL IFNγ (PrproTech) were added to the M0 cells for 24 hours. To induce BMDM polarization toward an M2 state, 20 ng/mL IL-4 (PrproTech) was added to the M0 cells for 72 hours.
# (§4) BMDM were polarized to the indicated status (M0, M1, or M2) and seeded in 12-well plates at 80-90% confluency. The cells were switched to the medium without FBS for 6 hours of starvation. Scratches were made using pipettor tips and fresh IMDM with indicated recombinant proteins and/or peptides were added. Images of the scratches were captured at indicated times. For the SIM-A9 scratch-wound healing assay, 12-well plates were coated with 10 μg/mL fibronectin (Sigma-Aldrich) at 37° C. overnight before seeding cells.
# [3] = tested on: bone-marrow derived macrophages (BMDMs); test: Transwell migration assay, BMDM migration; assay type: cell-based, mouse
# Procedure: as §3
# (§5) Polarized BMDMs were starved by removing FBS for 6 hours. Cells were collected and 2×10^5 cells in 200 μL of IMDM were added into each transwell insert (Millipore, Cat #MCMP24H48). 700 μL of IMDM containing 2% FBS and the indicated recombinant proteins was added to the bottom of the plates. After 14-hour incubation, transwell inserts were stained with HEMA 3 Stain Set (Fisher Scientific). Insert membranes were separated and mounted on glass slides with CYTOSEAL XYL (ThermoFisher) and images were taken by an inverted microscope (Leica DM 2500). For the SIM-A9 cells, the inserts were coated with 10 μg/mL fibronectin overnight in advance of seeding cells.
# [4] = tested on: mouse microglial cell line (SIM-A9); test: Scratch-wound healing assay, microglial cell migration; assay type: cell-based; settings: rCHI3L1 0.6 μg/mL, 6 hours
# Procedure: as §4
# [5] = tested on: microglial cell line (SIM-A9); test: Transwell migration assay, microglial cell migration; assay type: cell-based, mouse
# Procedure: as §5
# Chain of Gal3-CHI3L1 interaction (P17931 2-250 limits assumed): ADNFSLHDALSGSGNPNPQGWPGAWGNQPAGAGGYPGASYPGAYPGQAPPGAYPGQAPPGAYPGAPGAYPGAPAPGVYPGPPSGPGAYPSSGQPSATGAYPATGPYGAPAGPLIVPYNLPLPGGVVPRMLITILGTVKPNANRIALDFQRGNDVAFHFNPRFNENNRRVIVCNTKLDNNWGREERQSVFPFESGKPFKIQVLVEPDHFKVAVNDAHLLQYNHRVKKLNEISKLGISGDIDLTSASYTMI
# Chain of Gal3-CHI3L1 interaction (P36222 22-383 partner): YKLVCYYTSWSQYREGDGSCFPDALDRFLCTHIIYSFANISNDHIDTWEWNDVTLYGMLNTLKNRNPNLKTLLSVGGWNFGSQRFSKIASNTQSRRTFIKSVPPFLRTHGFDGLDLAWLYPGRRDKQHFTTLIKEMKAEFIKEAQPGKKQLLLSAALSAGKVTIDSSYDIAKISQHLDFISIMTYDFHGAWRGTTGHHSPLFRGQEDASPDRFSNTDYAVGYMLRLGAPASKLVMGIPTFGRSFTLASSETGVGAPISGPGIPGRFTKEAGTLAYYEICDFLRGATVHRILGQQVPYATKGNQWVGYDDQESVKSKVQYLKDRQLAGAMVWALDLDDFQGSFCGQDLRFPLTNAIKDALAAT
# Chain of Gal3-Gal3BP interaction (P17931 2-250 limits assumed): as the sequence (P17931 2-250 limits assumed) above
# Chain of Gal3-Gal3BP interaction (P36222 22-383 partner): as the sequence (P36222 22-383 partner) above
compound,measurement,setting,value
OC[C@H]1O[C@@H](S[C@@H]2O[C@H](CO)[C@H](O)[C@H](n3cc(-c4cccc(F)c4)nn3)[C@H]2O)[C@H](O)[C@@H](n2cc(-c3cccc(F)c3)nn2)[C@H]1O [TD139],Gal3-CHI3L1 interaction (Co-IP),Gal3-CHI3L1 interaction,not Gal3-CHI3L1 interactions
same,Gal3-Gal3BP interaction (Co-IP),Gal3-Gal3BP interaction,completely disrupted
Cn1c(=O)n(-c2ccc(C(C)(C)C#N)cc2)c2c3cc(-c4cnc5ccccc5c4)ccc3ncc21 [NVP-BEZ235],CHI3L1 secretion in conditioned medium,CHI3L1 secretion,decreased CHI3L1 secretion in a dose- and time-dependent manner
Nc1cc(C(F)(F)F)c(-c2cc(N3CCOCC3)nc(N3CCOCC3)n2)cn1 [NVP-BKM120],CHI3L1 secretion in conditioned medium,CHI3L1 secretion,decreased CHI3L1 secretion in a dose- and time-dependent manner
"L1RTRLEETLSSDTSH15 (LRTRLEETLSSDTSH) [SCP, reference compound]",CD4+ cell population,GL261-CHI3L1 glioma,39.8±4.0%
same,M2-like TAMs,"GL261-CHI3L1 glioma; mean±SEM, P=0.0536",52.7±3.9%
same,M1-like TAMs,"GL261-CHI3L1 glioma; mean±SEM, P=0.0719",38.2±6.7%
same,median survival,[1],29 days
rCHI3L1: recombinant CHI3L1 protein,M0 and M1 BMDM migration,[2],not M0 and M1 BMDMs
same,M2 BMDM migration,[2],promoted M2 BMDM migration
same,M2 BMDM migration,[3],promoted cell migration in M2 BMDMs
same,microglial cell migration,[4],did not increase cell migration
same,microglial cell migration,[5],"not in M0 BMDMs, M1 BMDMs, or microglial cells"
